Test results taken from ChEMBL document CHEMBL1201862, “PubChem BioAssay data set” (2004).
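Five compound concentrations were applied to cells in 96-well plates for 48 hours; endpoints were derived by simple linear interpolation of the resulting dose-response curve. The concentration for 50% growth inhibition is given as GI50.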 Active and inactive are the calls of the source. Cut-off read from the data, not from the text of the source: active = GI50 up to about 1.1 µM and inactive = higher.

Key:
Experiment in all cases: NCI anticancer screen, dose series, 48 h
[1] = system: 786-0
[2] = system: BT-549
[3] = system: CAKI-1
[4] = system: CCRF-CEM
[5] = system: HCT-116
[6] = system: KM12
[7] = system: MDA-MB-231
[8] = system: NCI-H226
[9] = system: NCI/ADR-RES
[10] = system: OVCAR-3
[11] = system: PC-3
[12] = system: RXF 393
[13] = system: SF-295
[14] = system: SK-MEL-2
[15] = system: SR
[16] = system: SW-620
[17] = system: T47D
[18] = system: TK-10
[19] = system: UACC-62

Measured: GI50

C/C(=N\Nc1ccc2ccccc2n1)c1ccccc1O
inactive: [1] > 37.3 µM | [2] > 100 µM | [3] > 100 µM | [4] 3.33 µM | [5] > 100 µM | [6] > 100 µM | [7] > 83 µM | [8] > 90.2 µM | [9] > 37.5 µM | [10] 2.13 µM | [11] > 100 µM | [12] > 72.6 µM | [13] 8.07 µM | [14] > 100 µM | [15] 3.15 µM | [16] > 27.6 µM | [17] 3.96 µM | [18] > 86.3 µM | [19] > 100 µM

N/C(=N\Nc1ccc(S(N)(=O)=O)cc1)c1cnccn1
inactive: [1] > 100 µM | [2] > 100 µM | [3] > 100 µM | [4] > 100 µM | [5] > 100 µM | [6] > 100 µM | [7] > 100 µM | [8] > 100 µM | [9] > 100 µM | [10] > 100 µM | [11] > 100 µM | [12] > 100 µM | [13] > 100 µM | [14] > 100 µM | [15] > 100 µM | [16] > 100 µM | [17] > 100 µM | [18] > 100 µM | [19] > 100 µM

O=[N+]([O-])c1ccc2c(c1)/C(=N/N=C1c3ccccc3Cc3ccccc31)c1cc([N+](=O)[O-])cc([N+](=O)[O-])c1-2
inactive: [1] 1.72 µM | [2] 1.52 µM | [3] 3.6 µM | [4] 1.75 µM | [5] 1.57 µM | [6] 2.47 µM | [7] 2.62 µM | [8] 13.4 µM | [9] 2.19 µM | [10] 1.69 µM | [11] 2.76 µM | [12] 2.61 µM | [13] 1.93 µM | [14] 9.18 µM | [15] 4.61 µM | [16] 3.28 µM | [17] 1.78 µM | [18] 4.29 µM | [19] 2.62 µM

CCOC(=O)/C=C/CCO[Si](C)(C)C(C)(C)C
inactive: [1] > 100 µM | [2] > 100 µM | [3] > 100 µM | [4] > 100 µM | [5] > 100 µM | [6] > 100 µM | [7] > 100 µM | [8] > 100 µM | [9] > 100 µM | [10] > 100 µM | [11] > 100 µM | [12] > 100 µM | [13] > 100 µM | [14] > 100 µM | [15] > 100 µM | [16] > 100 µM | [17] > 100 µM | [18] > 100 µM | [19] > 100 µM

COc1ccc(-c2sc(Br)c3c2C(=O)C2OC(=O)NC32)cc1OC (centres undefined)
inactive: [1] > 100 µM | [2] > 100 µM | [3] > 100 µM | [4] > 100 µM | [5] > 100 µM | [6] > 100 µM | [7] > 100 µM | [8] > 100 µM | [9] > 100 µM | [10] > 100 µM | [11] > 100 µM | [12] > 100 µM | [13] > 100 µM | [14] > 100 µM | [15] > 100 µM | [16] > 100 µM | [17] > 100 µM | [18] > 100 µM | [19] > 100 µM

COC(=O)/C(=C(\C)NC(C)=O)c1c(C(=O)OC)[nH]c2ccccc12
inactive: [1] > 100 µM | [2] > 100 µM | [3] > 100 µM | [4] > 100 µM | [5] > 100 µM | [6] > 100 µM | [7] > 100 µM | [8] > 100 µM | [9] > 100 µM | [10] > 100 µM | [11] > 100 µM | [12] > 100 µM | [13] > 100 µM | [14] > 100 µM | [15] > 100 µM | [16] > 100 µM | [17] > 100 µM | [18] > 100 µM | [19] > 100 µM
